Laboratory results as given in patent US11932609B1 (priority 2023, dated 2024).

| Compound | melting point |
| --- | --- |
| CCOC(=O)C1=C(C)NC(Nc2ccc(Cl)c(C(F)(F)F)c2)=NC1c1ccc(F)cc1 (centres unmarked) [DHPM-KNV5, Ethyl 2-((4-chloro-3-(trifluoromethyl)phenyl)amino)-4-(4-fluorophenyl)-6-methyl-1,4-dihydropyrimidine-5-carboxylate] | 176 to 177 °C |
| CCOC(=O)C1=C(C)NC(Nc2ccc3ncsc3c2)=NC1c1ccc(F)cc1 (centres unmarked) [DHPM-KNV7, Ethyl 2-(benzo[d]thiazol-6-ylamino)-4-(4-fluorophenyl)-6-methyl-1,4-dihydropyrimidine-5-carboxylate] | 175 to 176 °C |
| CCOC(=O)C1=C(C)NC(Nc2ccccc2I)=NC1c1ccc(F)cc1 (centres unmarked) [DHPM-KNV8, Ethyl 4-(4-fluorophenyl)-2-((2-iodophenyl)amino)-6-methyl-1,4-dihydropyrimidine-5-carboxylate] | 229 to 230 °C |
| CCOC(=O)C1=C(C)NC(Nc2ccc(C(F)(F)F)cc2OC)=NC1c1ccc(F)cc1 (centres unmarked) [DHPM-KNV9, Ethyl 4-(4-fluorophenyl)-2-((2-methoxy-4-(trifluoromethyl)phenyl)amino)-6-methyl-1,4-dihydropyrimidine-5-carboxylate] | 213 to 214 °C |

The next lines start with the values.

| melting point | Compound |
| --- | --- |
| 92 to 93 °C | CCOC(=O)C1=C(C)NC(Nc2ccccc2)=NC1c1ccc(F)cc1 (centres unmarked) [DHPM-KNV1, Ethyl 4-(4-fluorophenyl)-6-methyl-2-(phenylamino)-1,4-dihydropyrimidine-5-carboxylate] |
| 120 to 121 °C | CCOC(=O)C1=C(C)NC(Nc2ccc(Br)cc2)=NC1c1ccc(F)cc1 (centres unmarked) [DHPM-KNV2, Ethyl 2-((4-bromophenyl)amino)-4-(4-fluorophenyl)-6-methyl-1,4-dihydropyrimidine-5-carboxylate] |
| 188 to 189 °C | CCOC(=O)C1=C(C)NC(Nc2ccc(Cl)cc2)=NC1c1ccc(F)cc1 (centres unmarked) [DHPM-KNV3, Ethyl 2-((4-chlorophenyl)amino)-4-(4-fluorophenyl)-6-methyl-1,4-dihydropyrimidine-5-carboxylate] |
| 125 to 126 °C | CCOC(=O)C1=C(C)NC(Nc2ccc(C(C)C)cc2)=NC1c1ccc(F)cc1 (centres unmarked) [DHPM-KNV4, Ethyl 4-(4-fluorophenyl)-2-((4-isopropylphenyl)amino)-6-methyl-1,4-dihydropyrimidine-5-carboxylate] |
